Converted amounts (≈) assume the structure as drawn. Read-outs that look alike come from different tables or passages of the source.
Tests used:
[1] = test system: rabbit platelet aggregation caused by PAF; experiment: Inhibition of PAF-induced platelet aggregation in vitro test; assay type: cell-based, rabbit (Japanese white crossbred male); conditions: rabbit PRP; for Specific activity relative to the activity of the compound of Example 1: inhibition of PAF-induced aggregation, compound of Example 1 = 1
Procedure: The inhibition of PAF-induced platelet aggregation was examined by use of a platelet-rich plasma [PRP] of a rabbit according to the method of Mustard et al. [J. F. Mustard et al., J. Lab. Clin. Med., 64, 548 (1964)], which is an improved version of the method of Born [G. V. R. Born, J. Physiol., London, 162, 67 (1962)]. Thus, 80 to 100 ml of blood per animal was collected from the carotid artery of a Japanese white crossbred male rabbit without anesthesia into a polyethylene vessel in which 1/10 the volume of a 3.8% sodium citrate solution had been placed beforehand. A portion (about 3 ml) of the blood thus collected was subjected to high speed centrifugation (11,000 rpm, 60 seconds) to obtain a platelet-poor plasma (PPP) as supernatant. The remainder of the blood was subjected to low speed centrifugation (1,000 rpm, 10 minutes) to obtain a platelet-richplasma (PRP) as supernatant.
The platelet aggregation was evaluated by nephelometry, the determination being made with PRP stirred at 1,000 rpm at 37° C. by use of an aggregater (Hematracer, Niko Bioscience Co.). The platelet aggregation activity was expressed in terms of the percent of light transmission, that of PRP being taken as 0% and that of PPP being taken as 100%. A 0.2 ml portion of PRP was placed in a glass cuvette containing a silicone-treatediron stirring rod, and 2 μl of dimethyl sulfoxide was added thereto. After 2 minutes, a PAF solution in 0.25% BSA physiological saline was added thereto to give a final concentration of PAF of […] and the maximum aggregation was determined. To examine the inhibitory activity of test compounds for the platelet aggregation caused by PAF, 2 μl of a test compound dissolved in dimethyl sulfoxide was added in place of dimethyl sulfoxide described above. The PAF inhibitory rate of a test compound was calculated according to the following equation: [formula]

[2] = test system: platelet aggregation caused by PAF; experiment: Inhibition of platelet aggregation, outside-living-body test (rabbit, intravenous); assay type: in vivo; conditions: Oryctolagus cuniculus, EC50 is of PAF, higher = more inhibition, read-out: EC50 value (PAF concentration necessary for causing an aggregation corresponding to 50% of the maximum PAF reaction)
Procedure: (§1) The test compound was intravenously administered (30 mg/kg) to a rabbit or orally administered (50 mg/kg) to a guinea pig. Blood samples were collected, and the extent of platelet aggregation caused by 10^-12 -10^-6 M of PAF was examined. The numerical values in the Table show the PAF concentrations (EC50 nM) necessary for causing an aggregation corresponding to 50% of the maximum PAF reaction.

[3] = test system: platelet aggregation caused by PAF; experiment: Inhibition of platelet aggregation, outside-living-body test (guinea pig, oral); assay type: in vivo; conditions: Cavia porcellus, EC50 is of PAF, higher = more inhibition, read-out: EC50 value (PAF concentration necessary for causing an aggregation corresponding to 50% of the maximum PAF reaction)
Procedure: as §1

SMILES | Specific activity relative to the activity of the compound of Example 1 [1] | other results
C#CCN1C(=O)C(c2ccc(Cl)cc2)SC1c1cccnc1 (single isomer, unassigned) [Example 19] | 1.2 | –
COc1ccc(CCN2C(=O)C(c3ccc(Cl)cc3)SC2c2cccnc2)cc1OC (single isomer, unassigned) [Example 21] | 2.2 | –
CCN1C(=O)C(c2ccc(Cl)cc2)SC1c1cccnc1 (stereo not shown) [Example 15] | 0.5 | –
CN1C(=O)C(c2c(Cl)cccc2Cl)SC1c1cccnc1 (stereo not shown) [Example 13] | 2.3 | –
CC(=O)OCCN1C(=O)C(c2ccc(Cl)cc2)SC1c1cccnc1 (single isomer, unassigned) [Example 32] | 1.8 | –
CN1C(=O)C(c2cccc3ccccc23)SC1c1cccnc1 (stereo not shown) [Example 5] | 0.9 | –
O=C1C(c2ccc(Cl)cc2)SC(c2cccnc2)N1CCCO (stereo not shown) [Example 27] | 0.6 | –
CN1C(=O)C(c2ccc(Cl)cc2)SC1c1cccnc1 (stereo not shown) [Example 1, 5-(4-chlorophenyl)-3-methyl-2-(3-pyridyl)thiazolidin-4-one] | – | IC50 ([1]; Oryctolagus cuniculus, Platelet, PAF-induced aggregation): 5 µg/mL (≈ 16.4 µM); EC50 at 30 mg/kg ([2]; 0 hr after administration): 6.2 nM; EC50 at 30 mg/kg ([2]; 0.5 hr after administration): 26 nM; EC50 at 30 mg/kg ([2]; 1 hr after administration): 20 nM; EC50 at 30 mg/kg ([2]; 2 hr after administration): 16 nM; EC50 at 30 mg/kg ([2]; 4 hr after administration): 14 nM; EC50 at 50 mg/kg ([3]; 0 hr after administration): 0.23 nM; EC50 at 50 mg/kg ([3]; 0.5 hr after administration): 10 nM; EC50 at 50 mg/kg ([3]; 1 hr after administration): 17 nM; EC50 at 50 mg/kg ([3]; 2 hr after administration): 3 nM; EC50 at 50 mg/kg ([3]; 4 hr after administration): 1 nM
CN1C(=O)C(c2ccccc2)SC1c1cccnc1 (stereo not shown) [Example 14] | 1.4 | –
CN1C(=O)C(c2ccc(F)cc2)SC1c1cccnc1 (stereo not shown) [Example 4] | 1.3 | –
COc1ccc(C2SC(c3cccnc3)N(C)C2=O)cc1OC (stereo not shown) [Example 11] | 0.7 | –
C=CCN1C(=O)C(c2ccc(Cl)cc2)SC1c1cccnc1 (single isomer, unassigned) [Example 17] | 1.0 | –
